From US7029879B1, “Iodine uptake restoration in thyroid cancer” (University of Kentucky Research Foundation, priority 1999, dated 2006)

Tests used:
Pax-8 mRNA = Pax-8 mRNA expression by RT-PCR in treated cell lines; assay type: cell-based, human
Experimental: (§1) Cell lines, for evaluation of iodide-uptake and hNIS expression, were grown in phenol-red-free RPMI 1640 with 5% fetal bovine serum (FBS), 100 nM sodium selenite and 0.1 nM bovine TSH (basal medium) (20). They were plated at a density of 3–5×10^4 cells/9.4 cm^2, in triplicate in basal medium, and grown for 2–3 days at 37° C. in 5% CO2. They were treated with dimethylsulfoxide (DMSO, 25 μM daily for 3 days), sodium butyrate (0.5 or 1.0 mM), phenylacetate (pH 7.0, 5 or 10 mM) or 5-azacytidine (0.5 or 1.0 μM, in 25 μM DMSO, daily for 3 days) until control cells were 80% confluent (3–4 days), then changed to fresh basal medium and grown for an additional 24 hrs.
Total RNA and genomic DNA from: normal human thyroid, thyroid tumors, and cell lines (treated with agents described above), were isolated by the acid-guanidinium-phenol-chloroform method (21). All surgical samples were snap-frozen and stored at −80° C. until processed by homogenization in Trizol reagent (Life Technologies, Gaithersburg, Md.) while still frozen. Complementary DNA (cDNA) was synthesized from 1.0 μg of total RNA using MMLV reverse transcriptase (RT) with random-hexamer primers (Clontech, Palo Alto, Calif.). Each 50 μL polymerase chain reaction (PCR) vessel contained: 60 mM Tris HCl, pH 9.0, 15 mM ammonium sulfate, 3.5 mM MgCl2 (1.5 mM for hTTF-1), 250 μM dNTPs (Boehringer-Mannheim, Indianapolis, Ind.), 0.2 μM each primer pair, 1 U AmpliTaq DNA polymerase (Perkin-Elmer, Norwalk, Conn.), 0.2 μg TaqStart Antibody (Clontech) and 3% cDNA. β-actin amplification (primers, Stratagene, La Jolla, Calif.) confirmed cDNA integrity, purity, and template equivalence for semiquantification. PCR primers (upstream 5′ to 3′/downstream 5′ to 3′, in all cases) used for amplification were, for hNIS (5), CTGCCCCAGACCAGTACAT GCC (SEQ ID NO. 1)/[…] (SEQ ID NO. 2) (to amplify a coding region spanning four introns (4) yielding a 303 bp product from cDNA) and for Pax-8, […] (SEQ ID NO. 3)/[…] (SEQ ID NO. 4)((22) to amplify a 329 bp product). Amplification conditions for hNIS and Pax-8 were: denaturation (95° C.×5 min); 40 cycles of 20 sec at 95° C. and 60 sec at 68° C.; followed by extension at 72° C. for 3 min. The hTTF-1 product was amplified with intron spanning primers, […] (SEQ ID NO. 5)/[…] (SEQ ID NO. 6), which amplify a 263 bp fragment. The conditions were: 95° C. for 5 min; 45 cycles of 95° C. for 20 sec, 60° C. for 60 sec, and 72° C. for 30 sec; followed by extension at 72° C. for 3 min. The RT-PCR products were resolved on 2% agarose gels and visualized by ethidium bromide staining.

[1] = test system: KAT-5 cells (papillary carcinoma); assay: Iodide uptake assay (specific 125I uptake), KAT-5; assay type: cell-based, human
Experimental: as §1
Cell lines, treated with differentiation agents and control cultures, were washed with 2 mL of buffer containing: 10 mM HEPES ([…]), 5.5 mM glucose, 5.4 mM KCl, 1.3 mM CaCl2, 0.4 mM Na2HPO4, 0.44 mM KH2PO4, and either 137 mM NaCl (Buffer A) or 100 mM choline chloride (Buffer B). After a 60 min incubation in the same buffer supplemented with Na(^125I) (1.0 μCi/2 mL) and 1.0 μM NaI, cells were washed once with Buffer A, lysed with 0.1 M NaOH and gamma counted (5). A parallel set of dishes, similarly plated and treated, were used for normalization of uptake activity, using 3-(4,5-dimethylthiazol-2-yl)-2,5-diphenyltetrazolium bromide (MTT) assay (25) as an index of cell viability. Gamma counts of cells incubated in Buffer B were subtracted from counts of cells incubated in Buffer A, under corresponding conditions, to account for non-specific binding of radioiodide.

KAT-10 cells = assay: Lethality of culture additive in cell culture; assay type: cell-based, human; settings: AzaC high, 1.0 μM
Experimental: as §1

[2] = test system: TTF-1 expression and thyroglobulin promoter activity; settings: transformed rat thyroid cell line (activated RAS oncogene); cited from earlier work
[3] = NPA'87, high: AzaC 1.0 μM, NaB 1.0 mM
[4] = high: AzaC 1.0 μM, NaB 1.0 mM, PhAc 10 mM
[5] = low: AzaC 0.5 μM, NaB 0.5 mM, PhAc 5.0 mM

SMILES	Pax-8 mRNA (Pax-8 mRNA; KAT-10, high: NaB 1.0 mM)	Pax-8 mRNA (Pax-8 mRNA; [3])	Specific ^125I Uptake [1, 4]	Specific ^125I Uptake [1, 5]	Lethality of additive concentration for the cell line (KAT-10 cells)	TTF-1 expression [2]	thyroglobulin promoter activity [2]	Pax-8 mRNA (Pax-8 mRNA; KAK-1, high: AzaC 1.0 μM)	Pax-8 mRNA (Pax-8 mRNA; KAK-1, low: AzaC 0.5 μM)	Pax-8 mRNA (Pax-8 mRNA; KAT-5, high: AzaC 1.0 μM, PhAc 10 mM)	Pax-8 mRNA (Pax-8 mRNA; KAT-10, low: AzaC 0.5 μM)
CCCC(=O)[O-].[Na+] [NaB, sodium butyrate]	+	+	−	−							
Nc1ncn([C@@H]2O[C@H](CO)[C@@H](O)[C@H]2O)c(=O)n1 [AzaC, 5-azacytidine]		+	−	−	Lethal additive concentration for this cell line	restored	restored	+	+	+	+
